Measured values reported in the kinase profiling compilation of Christmann-Franck et al. (2016).

What was measured:
Assay in all cases: radiometric filter-binding kinase assay, Kinase HotSpot
Details in all cases: compound 0.5 µM; ATP 10 µM
ABL2 (human) = ABL2 (human) (UniProt P42684)
AURKC (human) = AURKC (human) (UniProt Q9UQB9)
BMX (human) = BMX (human) (UniProt P51813)
BRSK1 (human) = BRSK1 (human) (UniProt Q8TDC3)
CAMKK2 (human) = CAMKK2 (human) (UniProt Q96RR4)
CDK5 CDK5R1 p25 (human) = CDK5 CDK5R1 p25 (human) (UniProt Q00535+Q15078)
CDK9 CCNK (human) = CDK9 CCNK (human) (UniProt O75909+P50750)
CLK3 (human) = CLK3 (human) (UniProt P49761)
CSK (human) = CSK (human) (UniProt P41240)
CSNK1D (human) = CSNK1D (human) (UniProt P48730)
DMPK (human) = DMPK (human) (UniProt Q09013)
DYRK1A (human) = DYRK1A (human) (UniProt Q13627)
EPHA4 (human) = EPHA4 (human) (UniProt P54764)
EPHA8 (human) = EPHA8 (human) (UniProt P29322)
EPHB3 (human) = EPHB3 (human) (UniProt P54753)
FGFR4 (human) = FGFR4 (human) (UniProt P22455)
GSK3B (human) = GSK3B (human) (UniProt P49841)
HIPK1 (human) = HIPK1 (human) (UniProt Q86Z02)
IGF1R (human) = IGF1R (human) (UniProt P08069)
IKBKE (human) = IKBKE (human) (UniProt Q14164)
IRAK1 (human) = IRAK1 (human) (UniProt P51617)
MAP2K1 (human) = MAP2K1 (human) (UniProt Q02750)
MAP2K2 (human) = MAP2K2 (human) (UniProt P36507)
MAPK13 (human) = MAPK13 (human) (UniProt O15264)
MAPK14 (human) = MAPK14 (human) (UniProt Q16539)
MAPKAPK2 (human) = MAPKAPK2 (human) (UniProt P49137)
MARK3 (human) = MARK3 (human) (UniProt P27448)
MARK4 (human) = MARK4 (human) (UniProt Q96L34)
MATK (human) = MATK (human) (UniProt P42679)
MERTK (human) = MERTK (human) (UniProt Q12866)
MYLK2 (human) = MYLK2 (human) (UniProt Q9H1R3)
NEK2 (human) = NEK2 (human) (UniProt P51955)
PASK (human) = PASK (human) (UniProt Q96RG2)
PDPK1 (human) = PDPK1 (human) (UniProt O15530)
PKN1 (human) = PKN1 (human) (UniProt Q16512)
PRKCG (human) = PRKCG (human) (UniProt P05129)
PRKCI (human) = PRKCI (human) (UniProt P41743)
SGK3 (human) = SGK3 (human) (UniProt Q96BR1)
STK17A (human) = STK17A (human) (UniProt Q9UEE5)
WNK2 (human) = WNK2 (human) (UniProt Q9Y3S1)
WNK3 (human) = WNK3 (human) (UniProt Q9BYP7)

PKN1 (human), sequence (Q16512 whole entry, looked up): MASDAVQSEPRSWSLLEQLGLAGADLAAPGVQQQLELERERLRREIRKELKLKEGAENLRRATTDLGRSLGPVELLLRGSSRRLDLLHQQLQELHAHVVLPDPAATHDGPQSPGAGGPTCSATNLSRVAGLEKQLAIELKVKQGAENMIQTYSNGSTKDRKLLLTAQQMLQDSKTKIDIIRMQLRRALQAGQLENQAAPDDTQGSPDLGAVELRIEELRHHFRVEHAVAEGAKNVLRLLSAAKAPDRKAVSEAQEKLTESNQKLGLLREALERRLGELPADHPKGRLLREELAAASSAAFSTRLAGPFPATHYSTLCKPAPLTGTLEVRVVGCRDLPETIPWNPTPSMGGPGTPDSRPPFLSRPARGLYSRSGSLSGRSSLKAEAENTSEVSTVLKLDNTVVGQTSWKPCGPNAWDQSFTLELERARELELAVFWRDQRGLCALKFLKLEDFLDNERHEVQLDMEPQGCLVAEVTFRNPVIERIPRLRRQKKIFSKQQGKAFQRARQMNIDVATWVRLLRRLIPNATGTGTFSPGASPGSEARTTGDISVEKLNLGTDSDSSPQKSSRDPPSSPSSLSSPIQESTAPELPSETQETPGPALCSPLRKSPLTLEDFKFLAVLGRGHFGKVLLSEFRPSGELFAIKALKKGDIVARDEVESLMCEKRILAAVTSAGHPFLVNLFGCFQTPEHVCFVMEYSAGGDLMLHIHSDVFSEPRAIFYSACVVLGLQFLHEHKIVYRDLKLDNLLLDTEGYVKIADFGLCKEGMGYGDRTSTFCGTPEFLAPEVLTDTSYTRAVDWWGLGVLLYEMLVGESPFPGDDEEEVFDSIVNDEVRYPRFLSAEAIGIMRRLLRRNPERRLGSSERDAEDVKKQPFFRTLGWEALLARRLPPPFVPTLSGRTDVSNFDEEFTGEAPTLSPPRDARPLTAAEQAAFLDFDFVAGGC
MAPK14 (human), sequence (Q16539 whole entry, looked up): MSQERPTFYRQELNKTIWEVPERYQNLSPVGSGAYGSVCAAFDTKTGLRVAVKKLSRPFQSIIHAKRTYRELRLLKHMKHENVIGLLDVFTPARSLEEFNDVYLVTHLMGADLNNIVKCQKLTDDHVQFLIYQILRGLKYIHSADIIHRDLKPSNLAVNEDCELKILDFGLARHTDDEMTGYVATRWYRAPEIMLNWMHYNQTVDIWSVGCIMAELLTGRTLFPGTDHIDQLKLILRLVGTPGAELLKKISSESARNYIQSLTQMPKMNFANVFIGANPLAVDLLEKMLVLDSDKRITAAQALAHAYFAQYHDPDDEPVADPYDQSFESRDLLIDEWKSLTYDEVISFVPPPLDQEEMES
MERTK (human), sequence (Q12866 whole entry, looked up): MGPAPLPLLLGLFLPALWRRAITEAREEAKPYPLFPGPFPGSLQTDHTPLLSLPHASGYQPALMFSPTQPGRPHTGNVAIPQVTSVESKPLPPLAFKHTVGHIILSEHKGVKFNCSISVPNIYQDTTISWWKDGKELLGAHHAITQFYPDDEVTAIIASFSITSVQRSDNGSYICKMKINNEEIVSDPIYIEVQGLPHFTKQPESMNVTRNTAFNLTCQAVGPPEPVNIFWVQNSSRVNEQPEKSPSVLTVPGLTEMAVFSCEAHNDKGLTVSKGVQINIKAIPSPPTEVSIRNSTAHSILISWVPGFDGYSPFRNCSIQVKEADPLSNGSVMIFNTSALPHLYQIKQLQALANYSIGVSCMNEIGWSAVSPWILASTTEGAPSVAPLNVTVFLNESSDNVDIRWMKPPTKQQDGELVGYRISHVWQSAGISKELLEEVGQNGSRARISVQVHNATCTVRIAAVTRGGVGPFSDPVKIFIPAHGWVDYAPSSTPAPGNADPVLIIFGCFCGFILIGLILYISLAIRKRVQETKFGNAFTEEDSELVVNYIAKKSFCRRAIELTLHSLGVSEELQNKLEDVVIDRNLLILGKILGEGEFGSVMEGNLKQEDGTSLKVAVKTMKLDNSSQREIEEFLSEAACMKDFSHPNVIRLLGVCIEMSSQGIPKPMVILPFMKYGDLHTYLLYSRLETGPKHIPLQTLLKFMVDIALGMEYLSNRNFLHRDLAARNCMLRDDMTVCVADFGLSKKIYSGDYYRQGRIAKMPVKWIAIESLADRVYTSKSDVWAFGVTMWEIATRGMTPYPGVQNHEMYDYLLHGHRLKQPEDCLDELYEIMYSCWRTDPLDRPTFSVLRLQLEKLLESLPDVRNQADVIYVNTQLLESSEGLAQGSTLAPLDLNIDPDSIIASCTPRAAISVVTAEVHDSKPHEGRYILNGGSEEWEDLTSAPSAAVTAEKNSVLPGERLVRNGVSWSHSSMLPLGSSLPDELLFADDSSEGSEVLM
MARK3 (human), sequence (P27448 whole entry, looked up): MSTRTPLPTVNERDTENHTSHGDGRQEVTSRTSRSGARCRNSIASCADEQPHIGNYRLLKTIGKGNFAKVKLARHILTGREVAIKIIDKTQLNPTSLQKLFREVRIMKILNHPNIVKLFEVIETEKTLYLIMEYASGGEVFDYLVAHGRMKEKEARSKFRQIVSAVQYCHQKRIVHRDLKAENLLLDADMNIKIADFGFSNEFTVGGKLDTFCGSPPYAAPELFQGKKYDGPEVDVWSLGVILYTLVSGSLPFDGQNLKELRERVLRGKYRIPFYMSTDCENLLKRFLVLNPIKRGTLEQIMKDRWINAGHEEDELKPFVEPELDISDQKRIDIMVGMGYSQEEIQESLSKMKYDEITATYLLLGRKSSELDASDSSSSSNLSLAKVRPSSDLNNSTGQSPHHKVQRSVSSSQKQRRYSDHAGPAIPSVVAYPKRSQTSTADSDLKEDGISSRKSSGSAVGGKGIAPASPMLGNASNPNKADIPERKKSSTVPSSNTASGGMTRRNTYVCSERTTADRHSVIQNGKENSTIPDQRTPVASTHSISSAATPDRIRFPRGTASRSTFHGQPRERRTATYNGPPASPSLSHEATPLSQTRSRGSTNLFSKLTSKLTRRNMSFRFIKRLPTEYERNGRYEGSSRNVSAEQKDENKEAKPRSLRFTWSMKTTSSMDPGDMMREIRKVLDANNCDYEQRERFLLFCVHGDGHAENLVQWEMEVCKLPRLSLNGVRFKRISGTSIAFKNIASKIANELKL
MATK (human), sequence (P42679 whole entry, looked up): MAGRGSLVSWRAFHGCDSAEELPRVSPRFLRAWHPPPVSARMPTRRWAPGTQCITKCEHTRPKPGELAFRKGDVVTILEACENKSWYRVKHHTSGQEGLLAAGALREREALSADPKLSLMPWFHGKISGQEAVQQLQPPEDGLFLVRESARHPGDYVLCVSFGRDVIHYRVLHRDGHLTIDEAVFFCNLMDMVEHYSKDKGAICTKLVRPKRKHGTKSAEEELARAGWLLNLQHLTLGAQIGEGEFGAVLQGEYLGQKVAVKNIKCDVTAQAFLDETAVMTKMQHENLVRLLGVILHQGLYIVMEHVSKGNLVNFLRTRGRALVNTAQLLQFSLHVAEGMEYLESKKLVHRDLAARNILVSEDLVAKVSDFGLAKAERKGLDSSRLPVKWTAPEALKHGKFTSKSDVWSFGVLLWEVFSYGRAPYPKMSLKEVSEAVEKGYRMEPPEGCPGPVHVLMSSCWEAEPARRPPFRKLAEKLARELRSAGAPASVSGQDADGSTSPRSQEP
CDK9 CCNK (human), sequence (O75909 whole entry, looked up): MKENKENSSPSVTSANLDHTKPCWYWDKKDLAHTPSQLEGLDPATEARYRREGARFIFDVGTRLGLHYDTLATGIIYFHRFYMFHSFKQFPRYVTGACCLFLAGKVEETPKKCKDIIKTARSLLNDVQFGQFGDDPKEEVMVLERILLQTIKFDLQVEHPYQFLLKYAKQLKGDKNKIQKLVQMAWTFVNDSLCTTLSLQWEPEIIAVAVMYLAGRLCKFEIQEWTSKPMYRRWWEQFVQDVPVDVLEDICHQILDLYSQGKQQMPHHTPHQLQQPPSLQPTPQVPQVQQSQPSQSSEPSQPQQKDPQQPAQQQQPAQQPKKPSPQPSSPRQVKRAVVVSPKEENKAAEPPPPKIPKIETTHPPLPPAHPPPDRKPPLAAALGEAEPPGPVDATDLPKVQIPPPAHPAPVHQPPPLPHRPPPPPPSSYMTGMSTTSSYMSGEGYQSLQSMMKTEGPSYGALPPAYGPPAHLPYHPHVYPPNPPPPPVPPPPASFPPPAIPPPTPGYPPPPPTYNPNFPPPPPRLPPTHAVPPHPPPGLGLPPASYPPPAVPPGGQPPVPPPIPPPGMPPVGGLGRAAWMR
CDK9 CCNK (human), sequence (P50750 whole entry, looked up): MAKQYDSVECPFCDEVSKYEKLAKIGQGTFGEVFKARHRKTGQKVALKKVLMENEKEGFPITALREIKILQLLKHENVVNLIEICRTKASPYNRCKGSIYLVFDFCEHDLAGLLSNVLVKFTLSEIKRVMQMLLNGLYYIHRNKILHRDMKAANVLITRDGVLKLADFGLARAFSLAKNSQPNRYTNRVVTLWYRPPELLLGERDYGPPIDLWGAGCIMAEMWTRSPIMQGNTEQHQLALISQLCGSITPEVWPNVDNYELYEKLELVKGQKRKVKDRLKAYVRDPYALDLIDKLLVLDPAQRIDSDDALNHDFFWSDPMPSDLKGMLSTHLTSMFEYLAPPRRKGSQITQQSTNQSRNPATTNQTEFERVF
NEK2 (human), sequence (P51955 whole entry, looked up): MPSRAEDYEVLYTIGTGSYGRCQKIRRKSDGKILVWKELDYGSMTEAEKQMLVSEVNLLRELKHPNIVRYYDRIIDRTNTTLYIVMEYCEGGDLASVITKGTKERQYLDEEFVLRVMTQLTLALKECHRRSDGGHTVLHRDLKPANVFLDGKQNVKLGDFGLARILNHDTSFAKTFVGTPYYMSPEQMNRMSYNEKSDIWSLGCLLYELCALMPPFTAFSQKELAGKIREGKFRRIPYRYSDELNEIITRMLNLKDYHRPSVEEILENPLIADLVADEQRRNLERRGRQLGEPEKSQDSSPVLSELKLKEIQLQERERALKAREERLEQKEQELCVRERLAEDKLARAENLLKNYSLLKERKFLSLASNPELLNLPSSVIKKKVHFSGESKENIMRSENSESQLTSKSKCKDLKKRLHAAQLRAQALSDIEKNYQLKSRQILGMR

In the case of `CCCNC(=O)Nc1ccc(Oc2ncnc3cc(OC)c(OC)cc23)cc1Cl`, the residual activity (ABL2 (human)) is reported as 90.5%, the residual activity (AURKC (human)) is reported as 71.6% and the residual activity (BMX (human)) is reported as 93.6%. The residual activity (BRSK1 (human)) was 98.5%, the residual activity (CAMKK2 (human)) was 91.5% and the residual activity (CDK5 CDK5R1 p25 (human)) was 95.7%. For the same compound, the residual activity (CDK9 CCNK (human)) was 103%, the residual activity (CLK3 (human)) was 98.8% and the residual activity (CSK (human)) was 100%. It also gave a residual activity (CSNK1D (human)) of 98.9%, a residual activity (DMPK (human)) of 100% and a residual activity (DYRK1A (human)) of 96.9%. It also gave a residual activity (EPHA4 (human)) of 93.4%, a residual activity (EPHA8 (human)) of 105% and a residual activity (EPHB3 (human)) of 93.7%. It also gave a residual activity (FGFR4 (human)) of 73.9%, a residual activity (GSK3B (human)) of 91.3% and a residual activity (HIPK1 (human)) of 96.8%. The residual activity (IGF1R (human)) was 77%, the residual activity (IKBKE (human)) was 93.5% and the residual activity (IRAK1 (human)) was 106%. For the same compound, the residual activity (MAP2K1 (human)) was 99.2%, the residual activity (MAP2K2 (human)) was 99.9% and the residual activity (MAPK13 (human)) was 100%. The residual activity (MAPK14 (human)) was 122%, the residual activity (MAPKAPK2 (human)) was 101% and the residual activity (MARK3 (human)) was 95.3%. For the same compound, the residual activity (MARK4 (human)) was 110%, the residual activity (MATK (human)) was 96.8% and the residual activity (MERTK (human)) was 67.7%. For the same compound, the residual activity (MYLK2 (human)) was 99.9%, the residual activity (NEK2 (human)) was 92.3% and the residual activity (PASK (human)) was 87.7%. The residual activity (PDPK1 (human)) was 86.8%, the residual activity (PKN1 (human)) was 99.1% and the residual activity (PRKCG (human)) was 120%. It also gave a residual activity (PRKCI (human)) of 93%, a residual activity (SGK3 (human)) of 95.5% and a residual activity (STK17A (human)) of 99%. The residual activity (WNK2 (human)) was 100% and the residual activity (WNK3 (human)) was 93.8%.
